Experimental data as given in article PMC9848300, “Discovery of novel enasidenib analogues targeting inhibition of mutant isocitrate dehydrogenase 2 as antileukaemic agents” (Journal of Enzyme Inhibition and Medicinal Chemistry, 2023).
Read-outs that look alike come from different tables or passages of the source.

Columns and labels:
HL-60(TB) = assay: NCI 60 antitumor screening (single dose / five doses); type: cell-based; conditions: Homo sapiens
K-562 = assay: as above; type: cell-based; conditions: Homo sapiens
HOP-92 = assay: as above; type: cell-based; conditions: Homo sapiens
MCF7 = assay: NCI 60 antitumor screening (single dose); type: cell-based; conditions: Homo sapiens; MCF7 (breast cancer), single dose 10 μM; read-out: Growth inhibition percentage (GI %)
Procedure, shortened: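 GI% derived as 100 − G% from triplicate growth measurements in the NCI 60 human tumour panel, compound 10 μM, single dose, per NCI protocol.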

SF-268 = assay: NCI 60 antitumor screening (single dose); type: cell-based; conditions: Homo sapiens; SF-268 (CNS cancer), single dose 10 μM; read-out: Growth inhibition percentage (GI %)
Procedure, shortened: (§1)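 NCI-60 protocol: single 10 μM dose against each cell line, run in triplicate. Percent growth (G%) of treated cells measured and growth inhibition reported as GI% = 100 − G%; panel mean also given.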

COLO 205 = assay: NCI 60 antitumor screening (single dose / five doses); type: cell-based; conditions: Homo sapiens
HCT-116 = assay: as above; type: cell-based; conditions: Homo sapiens
HCT-15 = assay: as above; type: cell-based; conditions: Homo sapiens
HT29 = assay: as above; type: cell-based, human; conditions: Homo sapiens
SF-539 = assay: as above; type: cell-based; conditions: Homo sapiens
SNB-75 = assay: as above; type: cell-based; conditions: Homo sapiens
LOX IMVI = assay: as above; type: cell-based; conditions: Homo sapiens, read-out: Growth inhibition percentage (GI %)
MDA-MB-435 = assay: as above; type: cell-based; conditions: Homo sapiens
SK-MEL-2 = assay: as above; type: cell-based; conditions: Homo sapiens
SK-MEL-28 = assay: as above; type: cell-based; conditions: Homo sapiens
UACC-257 = assay: as above; type: cell-based; conditions: Homo sapiens
UACC-62 = assay: as above; type: cell-based; conditions: Homo sapiens
IGROV1 = assay: as above; type: cell-based; conditions: Homo sapiens
786-0 = assay: as above; type: cell-based; conditions: Homo sapiens
A498 = assay: as above; type: cell-based; conditions: Homo sapiens
ACHN = assay: as above; type: cell-based; conditions: Homo sapiens, read-out: Growth inhibition percentage (GI %)
RXF 393 = assay: as above; type: cell-based; conditions: Homo sapiens
SN 12C = assay: as above; type: cell-based; conditions: Homo sapiens, SN12C, read-out: Growth inhibition percentage (GI %)
UO-31 = assay: as above; type: cell-based; conditions: Homo sapiens
DU-145 = assay: as above; type: cell-based; conditions: Homo sapiens
MDA-MB-231/ATCC = assay: as above; type: cell-based; conditions: Homo sapiens
BT-549 = assay: as above; type: cell-based; conditions: Homo sapiens
T-47D = assay: as above; type: cell-based; conditions: Homo sapiens, T47D, read-out: Growth inhibition percentage (GI %)
[1] = test system: 60 human subpanel cancer cell lines; assay: NCI 60 antitumor screening, mean over the panel (single dose); type: cell-based; conditions: mean over 60 cancer cell lines, single dose 10 μM
Procedure, shortened: as §1

[2] = HL-60(TB) (leukaemia), single dose 10 μM, read-out: Growth inhibition percentage (GI %)
[3] = K562, K-562 (leukaemia), single dose 10 μM, read-out: Growth inhibition percentage (GI %)
[4] = HOP-92 (non-small cell lung cancer), single dose 10 μM, read-out: Growth inhibition percentage (GI %)
[5] = COLO 205 (colon cancer), single dose 10 μM, read-out: Growth inhibition percentage (GI %)
[6] = HCT-116 (colon cancer), single dose 10 μM, read-out: Growth inhibition percentage (GI %)
[7] = HCT-15 (colon cancer), single dose 10 μM, read-out: Growth inhibition percentage (GI %)
[8] = HT-29, HT29 (colon cancer), single dose 10 μM, read-out: Growth inhibition percentage (GI %)
[9] = SF-539 (CNS cancer), single dose 10 μM, read-out: Growth inhibition percentage (GI %)
[10] = SNB-75 (CNS cancer), single dose 10 μM, read-out: Growth inhibition percentage (GI %)
[11] = LOX IMVI (melanoma), single dose 10 μM
[12] = MDA-MB-435 (melanoma), single dose 10 μM, read-out: Growth inhibition percentage (GI %)
[13] = SK-MEL-2 (melanoma), single dose 10 μM, read-out: Growth inhibition percentage (GI %)
[14] = SK-MEL-28 (melanoma), single dose 10 μM, read-out: Growth inhibition percentage (GI %)
[15] = UACC-257 (melanoma), single dose 10 μM, read-out: Growth inhibition percentage (GI %)
[16] = UACC-62 (melanoma), single dose 10 μM, read-out: Growth inhibition percentage (GI %)
[17] = IGROV-1, IGROV1 (ovarian cancer), single dose 10 μM, read-out: Growth inhibition percentage (GI %)
[18] = 786-0, 786-0 (renal cancer), single dose 10 μM, read-out: Growth inhibition percentage (GI %)
[19] = A498 (renal cancer), single dose 10 μM, read-out: Growth inhibition percentage (GI %)
[20] = ACHN (renal cancer), single dose 10 μM
[21] = RXF 393 (renal cancer), single dose 10 μM, read-out: Growth inhibition percentage (GI %)
[22] = SN 12C (renal cancer), single dose 10 μM
[23] = UO-31 (renal cancer), single dose 10 μM, read-out: Growth inhibition percentage (GI %)
[24] = DU-145 (prostate cancer), single dose 10 μM, read-out: Growth inhibition percentage (GI %)
[25] = MDA-MB-231/ATCC (breast cancer), single dose 10 μM, read-out: Growth inhibition percentage (GI %)
[26] = BT-549 (breast cancer), single dose 10 μM, read-out: Growth inhibition percentage (GI %)
[27] = T-47D (breast cancer), single dose 10 μM

## O=[N+]([O-])c1cc(/C=N/Nc2nc(N/N=C/c3ccc(Cl)c([N+](=O)[O-])c3)nc(N3CCCCC3)n2)ccc1Cl [compound 7i, 2,4-Bis[(E)-2-[(4-Chloro-3-nitrophenyl)methylidene]hydrazin-1-yl]-6-(piperidin-1-yl)-1,3,5-triazine]
HL-60(TB); HL-60, read-out: Growth inhibition percentage (GI %)
  inhibition at 10 µM: 58.1%
K-562; K562, read-out: Growth inhibition percentage (GI %)
  inhibition at 10 µM: 68.3%
HOP-92; HOP-92, read-out: Growth inhibition percentage (GI %)
  inhibition at 10 µM: -23.1%
MCF7
  inhibition at 10 µM: 99.1%
SF-268
  inhibition at 10 µM: 35.1%
COLO 205; COLO 205, read-out: Growth inhibition percentage (GI %)
  inhibition at 10 µM: -0.27%
HCT-116; HCT-116, read-out: Growth inhibition percentage (GI %)
  inhibition at 10 µM: 78%
HCT-15; HCT-15, read-out: Growth inhibition percentage (GI %)
  inhibition at 10 µM: 50.3%
HT29; HT-29, read-out: Growth inhibition percentage (GI %)
  inhibition at 10 µM: 92.6%
SF-539; SF-539, read-out: Growth inhibition percentage (GI %)
  inhibition at 10 µM: 63.7%
SNB-75; SNB-75, read-out: Growth inhibition percentage (GI %)
  inhibition at 10 µM: -36.1%
LOX IMVI; LOX IMVI
  inhibition at 10 µM: 34%
MDA-MB-435; MDA-MB-435, read-out: Growth inhibition percentage (GI %)
  inhibition at 10 µM: 19.3%
SK-MEL-2; SK-MEL-2, read-out: Growth inhibition percentage (GI %)
  inhibition at 10 µM: 37.8%
SK-MEL-28; SK-MEL-28, read-out: Growth inhibition percentage (GI %)
  inhibition at 10 µM: 22.2%
UACC-257; UACC-257, read-out: Growth inhibition percentage (GI %)
  inhibition at 10 µM: 56.9%
UACC-62; UACC-62, read-out: Growth inhibition percentage (GI %)
  inhibition at 10 µM: 34%
IGROV1; IGROV-1, read-out: Growth inhibition percentage (GI %)
  inhibition at 10 µM: 47.2%
786-0; 786-0, read-out: Growth inhibition percentage (GI %)
  inhibition at 10 µM: -8.84%
A498; A498, read-out: Growth inhibition percentage (GI %)
  inhibition at 10 µM: -8.06%
ACHN; ACHN
  inhibition at 10 µM: 64.8%
RXF 393; RXF 393, read-out: Growth inhibition percentage (GI %)
  inhibition at 10 µM: 0.13%
SN 12C
  inhibition at 10 µM: 27.7%
UO-31; UO-31, read-out: Growth inhibition percentage (GI %)
  inhibition at 10 µM: 52.5%
DU-145; DU-145, read-out: Growth inhibition percentage (GI %)
  inhibition at 10 µM: 70.4%
MDA-MB-231/ATCC; MDA-MB-231, read-out: Growth inhibition percentage (GI %)
  inhibition at 10 µM: 51.7%
BT-549; BT-549, read-out: Growth inhibition percentage (GI %)
  inhibition at 10 µM: 2.15%
T-47D
  inhibition at 10 µM: 51.8%
[1]
  Mean GI %: 37.38%

## Oc1ccc(/C=N/Nc2nc(N/N=C/c3ccc(O)c(O)c3)nc(N3CCCCC3)n2)cc1O [compound 7j, 4-[(1e)-(2-{4-[(E)-2-[(3,4-Dihydroxyphenyl)methylidene]hydrazin-1-yl]-6-(piperidin-1-yl)-1,3,5-triazin-2-yl}hydrazin-1-ylidene)methyl]benzene-1,2-diol]
HL-60(TB); [2]
  inhibition at 10 µM: -1.96%
K-562; [3]
  inhibition at 10 µM: 6.41%
HOP-92; [4]
  inhibition at 10 µM: -9.47%
MCF7
  inhibition at 10 µM: 4.27%
SF-268
  inhibition at 10 µM: -2.56%
COLO 205; [5]
  inhibition at 10 µM: -6.39%
HCT-116; [6]
  inhibition at 10 µM: 23.7%
HCT-15; [7]
  inhibition at 10 µM: 16.1%
HT29; [8]
  inhibition at 10 µM: -13.4%
SF-539; [9]
  inhibition at 10 µM: 1.16%
SNB-75; [10]
  inhibition at 10 µM: -4%
LOX IMVI; [11]
  inhibition at 10 µM: 6.65%
MDA-MB-435; [12]
  inhibition at 10 µM: -1.68%
SK-MEL-2; [13]
  inhibition at 10 µM: 9.62%
SK-MEL-28; [14]
  inhibition at 10 µM: -7.04%
UACC-257; [15]
  inhibition at 10 µM: -8.89%
UACC-62; [16]
  inhibition at 10 µM: 3.56%
IGROV1; [17]
  inhibition at 10 µM: 5.35%
786-0; [18]
  inhibition at 10 µM: -1.22%
A498; [19]
  inhibition at 10 µM: -2.84%
ACHN; [20]
  inhibition at 10 µM: 6.6%
RXF 393; [21]
  inhibition at 10 µM: -17.8%
SN 12C; [22]
  inhibition at 10 µM: 4.32%
UO-31; [23]
  inhibition at 10 µM: 15.3%
DU-145; [24]
  inhibition at 10 µM: 0.25%
MDA-MB-231/ATCC; [25]
  inhibition at 10 µM: 12.8%
BT-549; [26]
  inhibition at 10 µM: 1.47%
T-47D; [27]
  inhibition at 10 µM: 16.9%
[1]
  Mean GI %: 1.89%

## C(=N\Nc1nc(N/N=C/c2ccc3c(c2)OCO3)nc(N2CCCCC2)n1)/c1ccc2c(c1)OCO2 [compound 7k, 2,4-Bis[(E)-2-(2H-1,3-Benzodioxol-5-ylmethylidene)hydrazin-1-yl]-6-(piperidin-1-yl)-1,3,5-triazine]
HL-60(TB); [2]
  inhibition at 10 µM: 39.6%
K-562; [3]
  inhibition at 10 µM: 58.9%
HOP-92; [4]
  inhibition at 10 µM: 4.01%
MCF7
  inhibition at 10 µM: 45.2%
SF-268
  inhibition at 10 µM: -0.46%
COLO 205; [5]
  inhibition at 10 µM: 14.1%
HCT-116; [6]
  inhibition at 10 µM: 52.1%
HCT-15; [7]
  inhibition at 10 µM: 66.2%
HT29; [8]
  inhibition at 10 µM: 61.8%
SF-539; [9]
  inhibition at 10 µM: 12.4%
SNB-75; [10]
  inhibition at 10 µM: -13.1%
LOX IMVI; [11]
  inhibition at 10 µM: 52.1%
MDA-MB-435; [12]
  inhibition at 10 µM: 1.52%
SK-MEL-2; [13]
  inhibition at 10 µM: -2.84%
SK-MEL-28; [14]
  inhibition at 10 µM: -8.67%
UACC-257; [15]
  inhibition at 10 µM: -7.99%
UACC-62; [16]
  inhibition at 10 µM: -2.37%
IGROV1; [17]
  inhibition at 10 µM: 23.1%
786-0; [18]
  inhibition at 10 µM: 13.4%
A498; [19]
  inhibition at 10 µM: 48.3%
ACHN; [20]
  inhibition at 10 µM: 5.09%
RXF 393; [21]
  inhibition at 10 µM: 20.3%
SN 12C; [22]
  inhibition at 10 µM: 20.3%
UO-31; [23]
  inhibition at 10 µM: 25.6%
DU-145; [24]
  inhibition at 10 µM: 0.19%
MDA-MB-231/ATCC; [25]
  inhibition at 10 µM: 9.3%
BT-549; [26]
  inhibition at 10 µM: -21.9%
T-47D; [27]
  inhibition at 10 µM: 12.8%
[1]
  Mean GI %: 14.53%
